According to publication PMC6631369 (Anti-cancer drugs, 2018):

Key:
[1] = cited from earlier work
[2] = test system: UGT1A1; design: species or system patients; conditions: UGT1A1*28 and *60; population model ref 24
[3] = no reference given; cited from earlier work

Row | SMILES | half-life [1] | model-predicted clearance versus number of variant copies of UGT1A1 [2] | dose excreted unchanged renally [3]
1 | O=C(/C=C/c1cccc(S(=O)(=O)Nc2ccccc2)c1)NO [belinostat] | ~ 1 h | decreasing trend with the number of variant copies of UGT1A1 | –
2 | COc1cc([C@@H]2c3cc4c(cc3[C@@H](O[C@@H]3O[C@@H]5CO[C@@H](C)O[C@H]5[C@H](O)[C@H]3O)[C@H]3COC(=O)[C@H]23)OCO4)cc(OC)c1O [etoposide] | – | – | 56%
